Measurements as given in patent US8008354B2, “Death receptor sensitizing compounds and methods of use therefor” (Burnham Institute for Medical Research, priority 2006, dated 2011).

Assays:
FLIP = settings: previously shown (Kim et al., 2002); cited from earlier work
PPC-1 cells = experiment: MTT viability of PPC-1 cells with extrinsic (CH-11, TRAIL) or intrinsic (VP-16, staurosporine) pathway stimuli; assay type: cell-based, human; settings: CH-11, TRAIL versus VP-16, STS, MTT 24 hours
Procedure: FIG. 4. Small molecules selectively sensitize to extrinsic pathway stimuli. PPC-1 cells (1×10^4) were seeded overnight in 96 well plates. The next day, cells were treated with increasing concentrations of 6094911, 5809354, 5703229, or 5569100 in combination with increasing concentrations of CH-11 or TRAIL to activate the extrinsic pathway or with VP-16 or staurosporine to activate the intrinsic pathway. Cell viability was measured 24 hours later by MTT assay. Cell viability is expressed as a mean percentage of untreated cells+SD(n=3).
Statistics. Cytotoxicity induced by compounds used in combination with conventional agents (e.g., CH-11, TRAIL, VP-16 and staurosporine) was evaluated for evidence of synergy toxicity by comparing the slopes of the dose-response curves. […]
The 9 compounds identified using anti-FAS antibody screening theoretically could non-specifically sensitize tumor cells to apoptotic stimuli or they could be selective for the extrinsic pathway. […] Accordingly, PPC-1 cells were treated with various concentrations of compounds with or without CH-11, TRAIL, VP-16, or STS, and 24 hours later, cell viability was measured by MTT assays.

In the case of `CC1(C)CC[C@]2(C(=O)O)CC[C@]3(C)[C@H](C(=O)C=C4[C@@]5(C)C=C(C#N)C(=O)C(C)(C)[C@@H]5CC[C@]43C)[C@@H]2C1` [CDDO, 2-cyano-3,12-dioxooleana-1,9-dien-28-oic acid], the FLIP protein levels (FLIP) is given as “reduce FLIP protein levels”.
In the case of `C[n+]1ccn2c3c(c4cc(C5CCCCC5)ccc42)CCCc31.[I-]` [compound 5362611, 8-Cyclohexyl-3-methyl-5,6-dihydro-4H-pyrazino[3,2,1-jk]carbazol-3-ium; iodide], the “sensitization to extrinsic versus intrinsic pathway stimuli” value (PPC-1 cells) is reported as “sensitized to both the death receptor (extrinsic) and mitochondrial pathway (intrinsic) stimuli”.
